According to US20240285627A1, “DRUG COMBINATION OF FAK INHIBITOR AND IMMUNOGENIC CELL DEATH INDUCER AND USE THEREOF” (INXMED (NANJING) CO., LTD., priority 2022, published 2024):
“And” between values parts separate entries of the source, which are not always exact repeats. Identical values can stand only once.

Legend:
[1] = test system: Mouse colon cancer CT26 cells; experiment: Induction of immunogenic cell death targets by Crizotinib and IN10018 in CT26 cells (Example 7); format: cell-based; details: CT26, 48 hours; IN10018 5 μM, Crizotinib 3 μM
Protocol: CT26 cells were cultured in monolayer in vitro, and the culture conditions were: RPMI-1640 medium with 10% fetal bovine serum, 37° C. and 5% CO2. Trypsin was used for routine digestion and passage treatment two or three times a week. When the cells were in exponential growth period and the adherent confluence reached 80%-90%, the cells were collected and plated.
CT26 cells were digested with trypsin, then collected and counted. According to the counting results, the cells were diluted with RPMI-1640+10% FBS, and the dilution concentration was 50,000 cells per ml. Then, the cells were plated on 24-well culture plates, and 1 ml of cell suspension (50,000 cells) was laid in each well. After plating, the cells were cultured in 37° C. and 5% CO2 incubator. […]
After the cells were washed twice with flow buffer (DPBS+2% FBS), the cells in each group were divided into two parts on average, one of which was added with 0.5 μl of AF647 anti-Calreticulin antibody in each well, then mixed well, and incubated in the dark for 20 minutes at 4° C. […] The cells were cultured at room temperature in the dark for 15 minutes, and then analyzed by flow cytometry.
Data analysis: After the assay, the cell positive rate was analyzed by Flowjo(V10) software.

[2] = test system: mouse colon cancer CT26-KRAS G12C allograft tumor; experiment: In vivo pharmacodynamic study, BALB/c mouse subcutaneous allograft tumor model of CT26-KRAS G12C cells (Example 8)
Protocol: Species: mice; Strain: BALB/c mice; Age and weight: 6-8 weeks old, weighing: 18-22 g; Gender: female; Quantity: 49 (excluding remaining mice after grouping); Supplier: LINGCHANG BIOTECH.
Mouse colon cancer CT26-KRAS G12C cells were cultured in monolayer in vitro. The culture conditions were RPMI1640 medium with 10% fetal bovine serum, 1% penicillin/streptomycin/amphotericin B, and 37° C. 5% CO2 incubator. Trypsin-EDTA was used twice a week for routine digestion and passage. When the cell saturation was 80%-90% and the number reached the requirements, the cells were collected, counted and inoculated.
0.1 mL (0.3×10^6 cells) of CT26-KRAS G12C cells were subcutaneously inoculated on the right back of each mouse, and grouping and drug administration began when the average tumor volume reached about 55 mm^3.
The diameter of tumor was measured three times a week with vernier caliper. The formula for calculating the tumor volume is: V=0.5×a×b^2, where a and b represent the long and short diameters of the tumor respectively.
The anti-tumor effect of the compound was evaluated by TGI (%) or relative tumor proliferation rate T/C(%). The relative tumor proliferation rate is T/C(%)=TRTV/CRTV×100% (TRTV: RTV in treatment group; CRTV: RTV in negative control group). According to the results of tumor measurement, the relative tumor volume (RTV) was calculated, and the calculation formula is RTV=Vt/V0, where V0 is the average tumor volume measured at the time of grouping and drug administration (i.e., D0), Vt is the average tumor volume measured at a certain time, and data on the same day were used for TRTV and CRTV.
TGI (%) reflects the tumor growth inhibition rate. TGI (%)=[1−(average tumor volume at the end of administration in a certain treatment group-average tumor volume at the beginning of administration in the treatment group)/(average tumor volume at the end of administration in solvent control group-average tumor volume at the beginning of administration in the solvent control group)]×100%.
Statistical analysis included the mean and standard error (SEM) of tumor volume at each time point in each group (see the specific data in Table 7). Based on the tumor volume data on the 19th day after administration, statistical analysis was performed to evaluate the differences between groups. T-test was used to analyze the comparison between two groups, and one-way ANOVA was used to analyze the comparison between three or more groups. If there was significant difference in F value, Games-Howell method was used for the test. If there was no significant difference in F value, Dunnet (2-sided) method was used for analysis. All data were analyzed by SPSS 17.0. P<0.05 was considered to have significant difference.

[3] = test system: Mouse colon cancer CT26 cells; experiment: CT26 cells with IN10018 and Lurbinectedin: microscope and flow cytometry for CRT / Annexin V (Example 2); format: cell-based; details: CT26, 48 hours; IN10018 5 μM, Lurbinectedin 0.00142 μM
Protocol: Mouse colon cancer CT26 cells (Insitute of Biochemistry and Cell Biology) were cultured with RPMI-1640 (Shanghai Basalmedia, classification number: L210KJ, batch number: F210916)+10% FBS (Gibco, classification number: 10099-141c, batch number: 2158737cp) and passaged twice. When the cells were in good condition, the culture solution was placed in a 24-well plate. After the cells were spread for 24 hours, four groups were set up, wherein the first group was a control group, and the culture medium was added; the second group was IN10018 with a concentration of 5 μM; the third group was Lurbinectedin (DC chemicals, classification number: DC12502, batch number: DC1250203) with a concentration of 0.00142 μM; and the fourth group was IN10018 (5 μM) combined with Lurbinectedin (0.00142 μM). The drugs were mixed and the mixture was cultured in a 5% CO2 incubator at 37° C. for 48 hours.
After 48 hours of drug action, the cells were observed under a microscope and photographed, and the photos were kept. Then the cells were collected, subjected to flow analysis, and washed twice with flow buffer (PBS+2% FBS). 0.5 μl of AF647 anti-Calreticulin antibody (abcam, classification number: ab196159, batch number: CR33676773) was added to each well and fully mixed. […] The mixture was cultured at room temperature in the dark for 15 minutes, and then analyzed by flow cytometry.

[4] = Day 19, D-1553 5 mg/kg PO QD, IN10018 25 mg/kg PO QD, INX0082 10 mg/kg IP BIW

COc1cc(C(=O)NC2CCN(C)CC2)c(F)cc1Nc1ncc(C(F)(F)F)c(Oc2cccc3c2C(=O)N(C)C3)n1 [IN10018]
cell state under a microscope (cell death; cell viability) [1]: better
Tumor volume (Day 0) ([2]; Day 0, at grouping, Average ± SEM, n = 7): 55 ± 3 mm^3
T/C (%) (Day 19) [2, 4]: 74.7%
TGI (%) (Day 19) [2, 4]: 23.4%
Tumor volume (Day 19) ([2]; Day 19, D-1553 5 mg/kg PO QD, IN10018 25 mg/kg PO QD, INX0082 10 mg/kg IP BIW, Average ± SEM, n = 7): 1352 mm^3 and 1352 ± 284 mm^3
anti-tumor effect compared with the solvent control group ([2]; Day 19, D-1553 5 mg/kg, IN10018 25 mg/kg, INX0082 10 mg/kg): no anti-tumor effect
cell state under a microscope [3]: good
